Data: PubChem BioAssay (NCI)
“And” between values parts separate entries of the source, which are not always exact repeats. Identical values can stand only once.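 These data come from cells grown in 96-well plates and exposed to compound for 48 hours at five concentrations. GI50 = concentration required for 50% inhibition of growth. TGI: total growth inhibition.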

Legend:
Assay in all cases: inhibition of tumour cell growth, NCI panel, 48 h
SF-539 CNS = test system: SF-539 CNS
LOX IMVI melanoma = test system: LOX IMVI melanoma
RPMI-8226 leukemia = test system: RPMI-8226 leukemia
NCI-H522 lung = test system: NCI-H522 lung
RXF 393 renal = test system: RXF 393 renal
SNB-19 CNS = test system: SNB-19 CNS
IGROV1 ovarian = test system: IGROV1 ovarian
M14 melanoma = test system: M14 melanoma
COLO 205 colon = test system: COLO 205 colon
SK-MEL-2 melanoma = test system: SK-MEL-2 melanoma

Structure (SMILES) | GI50 (SF-539 CNS) | TGI (SF-539 CNS) | GI50 (LOX IMVI melanoma) | TGI (LOX IMVI melanoma) | GI50 (RPMI-8226 leukemia) | TGI (RPMI-8226 leukemia) | GI50 (NCI-H522 lung) | TGI (NCI-H522 lung) | TGI (RXF 393 renal) | GI50 (SNB-19 CNS) | TGI (SNB-19 CNS) | GI50 (IGROV1 ovarian) | TGI (IGROV1 ovarian) | GI50 (M14 melanoma) | TGI (M14 melanoma) | GI50 (COLO 205 colon) | TGI (COLO 205 colon) | TGI (SK-MEL-2 melanoma) | GI50 (RXF 393 renal) | GI50 (SK-MEL-2 melanoma)
COc1ccccc1/C=C/C(=O)/C=C/c1ccccc1O | 1.46 µM | 2.78 µM | 0.724 µM | 2.01 µM | 0.164 µM | 0.401 µM | 0.95 µM | 2.21 µM | 0.763 µM | 1.48 µM | 2.94 µM | 0.344 µM | 1.92 µM | 1.46 µM | 3.17 µM | 1.11 µM | 2.49 µM |  |  | 
O=c1c(Cl)c(Cl)cnn1CCc1ccncc1 |  | 43.4 µM |  | 33.7 µM |  | > 100 µM |  |  | 42.2 µM |  | 30.7 µM |  | 33.8 µM |  | 30.7 µM |  |  | 39.7 µM |  | 
Cc1cc(Nc2nc(SCc3ccc(C(=O)Nc4ccc(F)cc4N)cc3)nn3cccc23)n[nH]1 | 0.282 µM | 17.4 µM | 0.665 µM | > 100 µM | 0.514 µM | 3.72 µM | 0.0488 µM | 0.565 µM | 13 µM | 0.536 µM | > 100 µM | 0.558 µM | 62 µM | 0.289 µM | 15.7 µM |  |  | 6.01 µM | 0.301 µM | 0.617 µM
CC1(C)CC[C@H](C2=CC(=O)c3c(O)ccc(O)c3C2=O)O1 |  |  | 1.78 µM and 0.303 µM and 0.658 µM | 4.66 µM and 1.13 µM and 1.97 µM | 1.42 µM and 0.278 µM and 0.398 µM | 5.13 µM and 0.992 µM and 2.2 µM | 0.55 µM and 0.0942 µM | 1.23 µM and 0.248 µM | 2.93 µM and 3.82 µM and 0.604 µM |  |  | 4.93 µM and 2.48 µM and 1.61 µM | 9.58 µM and 5.31 µM and 3.21 µM | 0.797 µM and 0.274 µM and 0.201 µM | 1.78 µM and 0.859 µM and 0.438 µM | 0.632 µM and 0.144 µM and 0.139 µM | 1.66 µM and 0.388 µM and 0.227 µM | 8.47 µM and 2.67 µM and 1.56 µM | 1.39 µM and 2.02 µM and 0.271 µM | 4.34 µM and 1.3 µM and 0.682 µM
CC1(Cc2ccccc2)NC(=S)NC1=O (centres undefined) |  | > 100 µM |  | > 100 µM |  |  |  | > 100 µM | > 100 µM |  | > 100 µM |  |  |  | > 100 µM |  | > 100 µM | > 100 µM |  | 
O=c1ncccn1C1C=C(CO)C(O)C1O (centres undefined) |  | > 50 µM |  | > 50 µM |  | > 50 µM |  | > 50 µM |  |  | > 50 µM |  |  |  | > 50 µM |  | > 50 µM | > 50 µM |  | 
CC1(C)OC2COC3(CNO)OC(C)(C)OC3C2O1 (centres undefined) |  | > 100 µM |  | > 100 µM |  |  |  |  | > 100 µM |  | > 100 µM |  | > 100 µM |  | > 100 µM |  | > 100 µM | > 100 µM |  | 
CCOC1Oc2ccccc2-c2oc(=O)c(Sc3ccc(C)cc3)cc21 (centres undefined) | 62.3 µM | > 100 µM | 24 µM | > 100 µM | 9.66 µM | 35.5 µM | 18.4 µM | 82.9 µM |  | 29.1 µM | > 100 µM | 26 µM | > 100 µM | 48.2 µM | > 100 µM | 25.2 µM | > 100 µM | > 100 µM |  | 49.4 µM
CC1(c2ccccc2)CC(c2ccccc2)=NO1 (centres undefined) |  | > 100 µM |  |  |  | > 100 µM |  | > 100 µM |  |  | > 100 µM |  | > 100 µM |  | > 100 µM |  | > 100 µM | > 100 µM |  | 
CC(=O)N[C@H](C(=O)N[C@@H](CCCNC(=N)N)C(=O)N[C@@H](CCCCN)C(=O)N[C@@H](CCCNC(=N)N)C(=O)N[C@]1(C)CCCCCC/C=C\CCC[C@@](C)(C(=O)N[C@@H](CCCNC(=N)N)C(=O)N[C@@H](CCC(=O)O)C(=O)N[C@@H](CC(C)C)C(=O)N[C@H](C(=O)N[C@@H](CCC(=O)O)C(N)=O)C(C)C)NC(=O)[C@H](CCC(N)=O)NC(=O)[C@H](CC(C)C)NC(=O)[C@H](CC(C)C)NC(=O)[C@H](CCCNC(=N)N)NC(=O)[C@H](CCCNC(=N)N)NC(=O)[C@H](CC(C)C)NC1=O)C(C)C | 1.97 µM | 15.8 µM | 10.1 µM | 43 µM | 6.48 µM | 20.9 µM | 2.66 µM | > 50 µM | 4.77 µM | 10.3 µM | > 50 µM |  |  | 2.13 µM | 27.6 µM | 1.3 µM | 4.54 µM | > 50 µM | 1.34 µM | 7.59 µM
O=C1C2=C(c3ccccc31)C(c1ccccc1Cl)N1C(=O)CCSC1=N2 (centres undefined) |  | > 100 µM |  |  |  | > 100 µM |  | > 100 µM |  |  | > 100 µM |  | > 100 µM |  | > 100 µM |  | > 100 µM | > 100 µM |  | 
Cl[Si]1(Cl)Oc2ccccc2O[Si](Cl)(Cl)Oc2ccccc2O1 |  | 97.9 µM |  | 36.5 µM |  | > 100 µM |  | 5.4 µM |  |  | > 100 µM |  | > 100 µM |  | 34.3 µM |  | 59.7 µM | 73.8 µM |  | 
Cn1c(/C(C#N)=C/c2ccc3ccccc3c2)cc2ccccc21 | 0.101 µM | 0.941 µM | 0.12 µM | > 100 µM | 0.311 µM | > 100 µM |  |  | 0.474 µM | 0.256 µM | > 100 µM | 0.225 µM | > 100 µM | 0.104 µM | > 100 µM | 0.309 µM | > 26.1 µM | > 100 µM | 0.0507 µM | 6.28 µM
NC(=O)/C=C/C(=O)O |  | > 5000 µM |  | > 5000 µM |  | > 5000 µM |  | > 5000 µM | > 5000 µM |  |  |  | > 5000 µM |  | > 5000 µM |  | > 5000 µM | > 5000 µM |  | 
CCN(CC)CC(=O)N1CCc2c([nH]c3ccccc23)C1c1cccnc1 (centres undefined) |  | > 100 µM |  | > 100 µM |  | > 100 µM |  | > 100 µM |  |  | > 100 µM |  | > 100 µM |  | > 100 µM |  |  |  |  | 
O=c1c2c3c(sc2n2c(-c4cc(-c5ccccc5)nn4-c4ccccc4)nnc2n1Cc1ccccc1)CCCC3 | > 100 µM | > 100 µM | > 100 µM | > 100 µM |  |  |  |  |  | > 100 µM | > 100 µM |  |  |  |  | > 100 µM | > 100 µM | > 100 µM |  | > 100 µM
C=CCC1[C@@H](C(C)(C)C(C(C)=O)C(=O)C(=O)OC)OC(C(C)(C)C)N1C(=O)OC (some centres undefined) |  | > 100 µM |  |  |  |  |  | > 100 µM | > 100 µM |  | > 100 µM |  |  |  | > 100 µM |  | > 100 µM | > 100 µM |  | 
c1ccc(Cn2cnc3ccc(-c4nc(-c5ccc6c(c5)ncn6C5CCCCC5)cn5ccnc45)cc32)cc1 |  |  |  |  | 1.15 µM | 4.5 µM | 2.03 µM | 5.09 µM |  | 4.54 µM | > 100 µM | 2.14 µM | > 100 µM |  |  |  |  | 4.85 µM |  | 2.02 µM
O=C(NC12CC3CC(CC(C3)C1)C2)C(=O)c1c[nH]c2ccc(Cl)cc12 |  | > 100 µM |  | 84.8 µM |  | > 100 µM |  | > 100 µM |  |  | > 100 µM |  | > 100 µM |  | > 100 µM |  | > 100 µM | 89.4 µM |  | 
